Source: ChEMBL document CHEMBL4699445, “Highly Potent Antiausterity Agents from Callistemon citrinus and Their Mechanism of Action against the PANC-1 Human Pancreatic Cancer Cell Line” (2020)
Calls of active or inactive are those of the source. The rule behind the calls is not given here.

Columns and labels:
PANC-1 [1] = assay: Anticancer activity against human PANC-1 cells assessed as reduction in cell viability in nutrient-deprived medium after 24 hrs by WST-8 assay; assay type: functional
PANC-1 [2] = assay: Induction of cell morphological changes in human PANC-1 cells assessed as dead cells at 0.1 uM after 24 hrs in nutrient-deprived medium by ethidium bromide-acridine orange staining based fluorescence microscopic analysis; assay type: functional
PANC-1 [3] = assay: Inhibition of cell migration in human PANC1 cells assessed as open wound area at 5 uM cultured in nutrient rich DMEM medium measured after 12 hrs by quantitative real-time imaging based wound healing assay (reference value: 57.5%); assay type: functional; set-up: scale not given: the % may be the effect or the level left
PANC-1 [4] = assay: Inhibition of cell migration in human PANC1 cells assessed as open wound area at 5 uM cultured in nutrient rich DMEM medium measured after 24 hrs by quantitative real-time imaging based wound healing assay (reference value: 15%); assay type: functional; set-up: scale not given: the % may be the effect or the level left
PANC-1 [5] = assay: Inhibition of colony formation in human PANC-1 cells in nutrient rich DMEM medium measured after 24 hrs by crystal violet staining based assay; assay type: functional, cell-based; conditions: dose microM 2.5-10, time 24.0 hrs
PANC-1 [6] = assay: Inhibition of colony formation in human PANC-1 cells in nutrient rich DMEM medium at 2.5 uM measured after 24 hrs by crystal violet staining based assay (reference value: 33%); assay type: functional
PANC-1 [7] = assay: Inhibition of colony formation in human PANC-1 cells in nutrient rich DMEM medium at 5 uM measured after 24 hrs by crystal violet staining based assay (reference value: 33%); assay type: functional
PANC-1 [8] = assay: Inhibition of colony formation in human PANC-1 cells in nutrient rich DMEM medium at 10 uM measured after 24 hrs by crystal violet staining based assay (reference value: 33%); assay type: functional
PANC-1 [9] = assay: Inhibition of PI3K/Akt/mTOR signaling in human PANC-1 cells assessed as decrease in PI3K p110alpha level measured after 3 to 6 hrs by Western blot analysis; assay type: cell-based; conditions: dose microM 1-10, time hrs 3-6
PANC-1 [10] = assay: Inhibition of PI3K/Akt/mTOR signaling in human PANC-1 cells assessed as decrease in PI3K p110beta level measured after 3 to 6 hrs by Western blot analysis; assay type: cell-based; conditions: dose 1-10 µM, time 3-6 hrs
PANC-1 [11] = assay: Inhibition of PI3K/Akt/mTOR signaling in human PANC-1 cells assessed as decrease in Akt level measured after 3 to 6 hrs by Western blot analysis; assay type: cell-based; conditions: dose 1-10 µM, time 3-6 hrs
PANC-1 [12] = assay: Inhibition of PI3K/Akt/mTOR signaling in human PANC-1 cells assessed as decrease in pAkt at S473 level measured after 3 to 6 hrs by Western blot analysis; assay type: cell-based; conditions: dose 1-10 µM, time 3-6 hrs
PANC-1 [13] = assay: Inhibition of PI3K/Akt/mTOR signaling in human PANC-1 cells assessed as decrease in mTOR level measured after 3 to 6 hrs by Western blot analysis; assay type: cell-based; conditions: dose 1-10 µM, time 3-6 hrs
PANC-1 [14] = assay: Inhibition of PI3K/Akt/mTOR signaling in human PANC-1 cells assessed as decrease in pmTOR S2481 level measured after 3 to 6 hrs by Western blot analysis; assay type: cell-based; conditions: dose 1-10 µM, time 3-6 hrs
PANC-1 [15] = assay: Inhibition of PI3K/Akt/mTOR signaling in human PANC-1 cells assessed as decrease in PI3K p110alpha level at 1 to 10 uM by Western blot analysis; assay type: cell-based; conditions: dose 1-10 µM, time 3-6 hrs, TDE = time-dependent effect
PANC-1 [16] = assay: Inhibition of PI3K/Akt/mTOR signaling in human PANC-1 cells assessed as decrease in PI3K p110beta level at 1 to 10 uM by Western blot analysis; assay type: cell-based; conditions: dose 1-10 µM, time 3-6 hrs, TDE = time-dependent effect
PANC-1 [17] = assay: Inhibition of PI3K/Akt/mTOR signaling in human PANC-1 cells assessed as decrease in Akt level at 1 to 10 uM by Western blot analysis; assay type: cell-based; conditions: dose 1-10 µM, time 3-6 hrs, TDE = time-dependent effect
PANC-1 [18] = assay: Inhibition of PI3K/Akt/mTOR signaling in human PANC-1 cells assessed as decrease in pAkt at S473 level at 1 to 10 uM by Western blot analysis; assay type: cell-based; conditions: dose 1-10 µM, time 3-6 hrs, TDE = time-dependent effect
PANC-1 [19] = assay: Inhibition of PI3K/Akt/mTOR signaling in human PANC-1 cells assessed as decrease in mTOR level at 1 to 10 uM by Western blot analysis; assay type: cell-based; conditions: dose 1-10 µM, time 3-6 hrs, TDE = time-dependent effect
PANC-1 [20] = assay: Inhibition of PI3K/Akt/mTOR signaling in human PANC-1 cells assessed as decrease in pmTOR S2481 level at 1 to 10 uM by Western blot analysis; assay type: cell-based; conditions: dose 1-10 µM, time 3-6 hrs, TDE = time-dependent effect
PANC-1 [21] = assay: Inhibition of PI3K/Akt/mTOR signaling in human PANC-1 cells assessed as decrease in LC3-II level at 1 to 10 uM measured after 3 to 6 hrs by Western blot analysis; assay type: cell-based; conditions: dose 1-10 µM, time 3-6 hrs

Question: With CC(C)[C@@H]1C[C@]2(CC[C@H]3C[C@@H]2C3(C)C)OC2=C1C(=O)C(C)(C)C(=O)C2(C)C as the compound, how does the PC50 (PANC-1 [1]) read?
Answer: 8 µM

Question: How did the PC50 (PANC-1 [1]) turn out when COc1cc([C@H]2c3cc(O)c(OC)cc3C[C@H](C)[C@@H]2C)ccc1O was run?
Answer: 88.3 µM

Question: With CCC(C)[C@H](C1=C(O)C(C)(C)C(=O)C(C)(C)C1=O)c1c(O)c(C(=O)CC(C)C)c(O)c2c1O[C@]1(C)C=C[C@@H](C(C)C)C[C@H]21 (some centres not stated) as the compound, how does the PC50 (PANC-1 [1]) read?
Answer: 0.01 µM

Question: What about the Activity (PANC-1 [2]) of the same compound?
Answer: Active

Question: With CC(C)[C@@H]1C=C[C@@]2(C)OC3=C(C(=O)C(C)(C)C(=O)C3(C)C)[C@H](C(C)C)[C@H]2C1 as the compound, how does the PC50 (PANC-1 [1]) read?
Answer: 11.7 µM

Question: Which PC50 (PANC-1 [1]) does the source give for CC(C)[C@H]1C[C@]2(CC[C@]3(C(C)C)C[C@H]23)OC2=C1C(=O)C(C)(C)C(=O)C2(C)C here?
Answer: 10 µM

Question: For CC(C)[C@@H]1C=C[C@@]2(C)OC3=C(C(=O)C(C)(C)C(=O)C3(C)C)[C@@H](C(C)C)[C@H]2C1, which PC50 (PANC-1 [1]) is on record?
Answer: 5 µM

Question: With COc1ccc(-c2cc(=O)c3c(O)c(C)c(OC)c(C)c3o2)cc1 as the compound, how does the PC50 (PANC-1 [1]) read?
Answer: 1 µM

Question: Which PC50 (PANC-1 [1]) does the source give for CC(C)CC(=O)c1c(O)c([C@H](C2=C(O)C(C)(C)C(=O)C(C)(C)C2=O)C(C)C)c(O)c2c1O[C@]1(C)C=C[C@@H](C(C)C)C[C@H]21 here?
Answer: 0.065 µM

Question: What about the Activity (PANC-1 [2]) of the same compound?
Answer: Active

Question: What about the Activity (PANC-1 [3]) of the same compound?
Answer: 95%

Question: And the Activity (PANC-1 [4])?
Answer: 92%

Question: And the inhibition (PANC-1 [5])?
Answer: Dose-dependent effect

Question: And the inhibition at 2.5 µM (PANC-1 [6])?
Answer: 41%

Question: What about the inhibition at 5 µM (PANC-1 [7]) of the same compound?
Answer: 63%

Question: And the inhibition at 10 µM (PANC-1 [8])?
Answer: 80%

Question: What about the inhibition (PANC-1 [9]) of the same compound?
Answer: Dose-dependent effect

Question: And the inhibition (PANC-1 [10])?
Answer: Dose-dependent effect

Question: And the inhibition (PANC-1 [11])?
Answer: Dose-dependent effect

Question: What about the inhibition (PANC-1 [12]) of the same compound?
Answer: Dose-dependent effect

Question: What about the inhibition (PANC-1 [13]) of the same compound?
Answer: Dose-dependent effect

Question: And the inhibition (PANC-1 [14])?
Answer: Dose-dependent effect

Question: And the inhibition (PANC-1 [15])?
Answer: Tde

Question: What about the inhibition (PANC-1 [16]) of the same compound?
Answer: Tde

Question: What about the inhibition (PANC-1 [17]) of the same compound?
Answer: Tde

Question: What about the inhibition (PANC-1 [18]) of the same compound?
Answer: Tde

Question: And the inhibition (PANC-1 [19])?
Answer: Tde

Question: What about the inhibition (PANC-1 [20]) of the same compound?
Answer: Tde

Question: What about the inhibition (PANC-1 [21]) of the same compound?
Answer: Active

Question: Which PC50 (PANC-1 [1]) does the source give for CC(C)=CCCC1=CCC2(C(=O)C(C)(C)C(=O)C(C)(C)C2=O)[C@@H](C(C)C)C1 here?
Answer: 0.02 µM

Question: Which PC50 (PANC-1 [1]) does the source give for Oc1cc(O)c2c(c1)O[C@H](c1ccc(O)c(O)c1)[C@@H](O)C2 [CIANIDANOL] here?
Answer: >100 µM

Question: How did the PC50 (PANC-1 [1]) turn out when CC(C)[C@@H]1C[C@]2(CC[C@]3(C(C)C)C[C@H]23)OC2=C1C(=O)C(C)(C)C(=O)C2(C)C was run?
Answer: 3.9 µM

Question: COc1ccc(-c2cc(=O)c3c(O)c(C)c(OC)cc3o2)cc1 was tested. Which PC50 (PANC-1 [1]) did it give?
Answer: 6.1 µM

Question: With CC1(C)C=C2C(=O)C(C)(C)C(=O)C(C)(C)C2(O)OO1 (configuration not stated) [ENDOPEROXIDE HORMONE G3] as the compound, how does the PC50 (PANC-1 [1]) read?
Answer: 32.3 µM

Question: Which PC50 (PANC-1 [1]) does the source give for CC(C)CC(=O)c1c(O)c2c(c3c1OC1(O)C(C(=O)C(C)(C)C(=O)C1(C)C)[C@@H]3C(C)C)OC1=C(C(=O)C(C)(C)C(=O)C1(C)C)[C@@H]2C(C)C (some centres not stated) here?
Answer: 0.6 µM

Question: COc1cc(C[C@H]2C(=O)OC[C@@H]2Cc2ccc(OC)c(OC)c2)ccc1O [ARCTIGENIN] was tested. Which PC50 (PANC-1 [1]) did it give?
Answer: 0.7 µM

Question: Which PC50 (PANC-1 [1]) does the source give for C=C1CC[C@H]2[C@@H](C(C)C)C3=C(O[C@]2(C)CC[C@@H]2[C@@H]1CC2(C)C)C(C)(C)C(=O)C(C)(C)C3=O here?
Answer: 28.1 µM
